For 86 molecules, melting point results are on record in a melting point compilation (Tetko et al.; mined from patent text by program, amines drawn as free bases though some values may be those of a salt).

Consider `CCS(=O)(=O)Nc1ccc2c(c1)S(=O)(=O)C=C(c1c(O)c3cc(F)ccc3n(CCC3CC3)c1=O)N2`, for which the melting point was in the range of 140 to 142 °C.

Molecule `Cc1c(C)c(N2CCN(c3ncccn3)CC2)c(C)c2c1OC(C)(C)C2` yielded a melting point of 145 to 147 °C.

Molecule `COc1ccc(S(=O)(=O)N(CC(C)C)CC(O)C(Cc2ccccc2)NC(=O)C(C)CS(C)(=O)=O)cc1OC` (stereo unspecified) displayed a melting point of 130 to 133 °C.

Molecule `CCCCCCCCCCCC(=O)NC(CCC(=O)O)C(=O)O` (racemic) showed a melting point of 101 to 104 °C.

`CCCc1c(C(=O)NCc2ccc3cc(OCC(=O)O)ccc3c2)cnn1-c1ccccc1` yielded a melting point of 175 to 177 °C.

`Cc1ccc(C(=S)CC2CCCN(C)C2)cc1` (stereo unspecified) showed a melting point of 61.5 to 62.5 °C.

The molecule `C[C@@H](CO)Oc1cc(Oc2ccc(C(=O)N3CCC3)cc2)cc(C(=O)Nc2ccn(C)n2)c1` returned a melting point of 131 °C.

The molecule `Oc1ccc2oc(-c3ccc(O)c4ccccc34)nc2c1` displayed a melting point of 182 to 184 °C.

Molecule `COC(=O)C1C=CCN2C(=O)C(CCOC3CCCCO3)(Cc3ccccc3)C(=O)N12` (stereo unspecified) had a melting point of 113 to 114 °C.

Molecule `CCCCCCCCOc1cc(O)c2c(=O)c3ccccc3oc2c1` registered a melting point of 98 °C.

Molecule `CC1(C)Oc2ccc(C#N)cc2[C@@H](N2CCCCC2=O)[C@@H]1O` (relative stereo) displayed a melting point of 155 °C.

Molecule `CC(C)(C)OC(=O)N1CCC(n2cc(-c3ccc(Oc4ccccc4)cc3)c3c(N)ncnc32)C1` (stereo unspecified) yielded a melting point of 168 to 170 °C.

Regarding `O=C(CN1C(=O)c2ccccc2S1(=O)=O)OC1CCCCC1`, the melting point came out at 83 °C.

Take `CCOc1ccc(S(=O)(=O)Cl)cc1C(=O)O`: the melting point was in the range of 108 to 110 °C.

Consider `O=C1NCCN=C1c1ccc([N+](=O)[O-])cc1`, for which the melting point is 191 to 192 °C.

On to `Nc1cc(-n2cc(C(=O)O)c(=O)c3cc(F)c(N4CC(N)C4)c(Cl)c32)cnc1Cl`, for which the melting point was found to be 280 °C.

On to `CC(=O)Nc1ccc(S(=O)(=O)NC(C)(C)C)cc1`, for which the melting point fell in the range of 200 to 201 °C.

`COc1cc(C(=O)O)ccc1Cc1cn(C)c2ccc(CC3CCN(C)C3=O)cc12` (stereo unspecified) displayed a melting point of 232 to 233 °C.

The molecule `CC#CCOc1ccc(SC(C(=O)NO)c2ccccc2OC)cc1` (stereo unspecified) displayed a melting point of 172 to 173 °C.

Turning to `COc1ccc(NC(=O)c2ccc([N+](=O)[O-])c(C)c2)cc1`, the melting point lay in the range of 168 to 169 °C.

`NC(=O)c1cnc2ccsc2c1Cl` showed a melting point of 180 to 182 °C.

Molecule `N#CCCN1C(=O)C2(COc3cc4c(cc32)OCO4)c2ccccc21` (stereo unspecified) gave a melting point of 200 to 202 °C.

`CCOC(=O)Nc1nc(C(=NOC)C(=O)OCC)ns1` showed a melting point of 108 to 110 °C.

`COc1cc(C(=O)Cc2ccc(O)cc2)c(O)cc1O` yielded a melting point of 157 to 159 °C.

In turn, `COc1ccc2c(c1)C(=O)NC(C(Cl)(Cl)Cl)O2` (stereo unspecified) registered a melting point of 162 to 165 °C.

Molecule `Nc1c(Cl)cc(C(F)(F)F)c(Cl)c1Cl` displayed a melting point of 37 to 39 °C.

Consider `CC(C)(C)OC(=O)COc1cc(NC(=O)OC(C)(C)C)c([N+](=O)[O-])cc1I`, for which the melting point turned out to be 103 °C.

In turn, `COc1cc2nc(N)nc(-c3ccccc3I)c2cc1OC` came in with a melting point of 225 to 230 °C.

Turning to `CCC(=O)C1(Nc2ccccc2)CCN(CCc2cccs2)CC1`, the melting point came to 127 °C.

In turn, `CCOC(=O)c1c(N2CCN(C(=O)c3cccs3)CC2)c2cccnc2n(Cc2cccc(F)c2)c1=O` registered a melting point of 105 to 110 °C.

The molecule `COCC(=O)Oc1cc(-n2c(=O)cc(C(F)(F)F)n(C)c2=O)c(F)cc1Cl` had a melting point of 101 to 103 °C.

`Cc1nc(N2CCN(c3ccccc3)C2=O)sc1C(=O)NCc1ccccc1` yielded a melting point of 234 to 236 °C.

Take `COC1C(O)C(CO)OC1n1cnc(C(N)=O)c1N` (stereo unspecified): the melting point was in the range of 114 to 117 °C.

`C=CCn1nc(C)c(C(=O)c2ccc(Cl)cc2Cl)c1OS(=O)(=O)c1ccc(C)cc1` returned a melting point of 113 to 114 °C.

Regarding `C[C@H](O)[C@@H](CCc1cccc(Cl)c1Cl)n1cnc(C(N)=O)c1`, the melting point lay in the range of 70 to 75 °C.

The molecule `CC1(C)OCCC2N1C(=O)C2(Sc1ccccc1)C1(O)CCSCC1` (stereo unspecified) registered a melting point of 191 to 192 °C.

`CCC(Oc1ccccc1)C(=O)OC1CC(O)C=C2C=CC(C)C(CCC3CC(O)CC(=O)O3)C21` (mixture of isomers) yielded a melting point of 120 to 122 °C.

`CCOC(=O)CC(=O)c1cc(F)c(S(=O)CC)nc1Nc1ccc(F)cc1F` (stereo unspecified): the melting point fell in the range of 115 to 116 °C.

`Cc1ccc(-c2ccc3c(c2)C=C(CO)CCO3)cc1` registered a melting point of 91 to 92 °C.

In turn, `CC(C)(C)OC(=O)CC1=CCCCC1n1nc(-c2c(-c3ccccc3)nn3ccccc23)ccc1=O` (stereo unspecified) had a melting point of 146 to 147 °C.

Molecule `Cc1ncc2c(n1)-c1ccc(Cl)cc1C(c1ccccc1F)=NC2` came in with a melting point of 104 to 107 °C.

The molecule `Brc1ccc(N2CCCN(c3ccc(Br)cn3)CC2)nc1` had a melting point of 178 to 181 °C.

For the molecule `CCOCc1nc2c(N)nc3cccnc3c2n1CCCCN(OC)C(C)=O`, the melting point lay within 180 to 181 °C.

Molecule `COC(=O)c1ccc(Cc2cn(C)c3ccc(CCNC(=O)N(C)C)cc23)c(OC)c1` yielded a melting point of 122 to 124 °C.

As for `Cc1cc(C2CCC2)n2nc(S(=O)(=O)Nc3c(Cl)cccc3Cl)nc2n1`, the melting point was determined as 260 °C.

Take `COCCc1nc2c(N)nc3cc(Br)ccc3c2n1CCCN1CCCC1=O`: the melting point lay within 228 to 231 °C.

The molecule `Cc1cc(N)c([N+](=O)[O-])cc1NC(=O)OCCCl` gave a melting point of 192 °C.

In turn, `COCn1cc(C2=C(c3cn(C)c4cc([N+](=O)[O-])ccc34)C(=O)NC2=O)c2ccccc21` had a melting point of over 250 °C.

In turn, `CCOC(=O)C(=O)Nc1ccc(S(=O)(=O)NC(=O)C(=O)OCC)c(C(F)(F)F)c1` yielded a melting point of 161 to 162 °C.

For `COC(=O)CCc1cc2cc(Cl)ccc2n1S(=O)(=O)c1cccc2ccccc12`, the melting point is 88 to 93 °C.

Turning to `O=C(O)c1cn(CC(F)(F)F)c2c(F)c(F)c(F)cc2c1=O`, the melting point was 205 to 207 °C.

In the case of `CCC(CC)/C(N)=C(\C)C#N`, the melting point worked out at 150 °C.

Molecule `Cn1ccnc1Sc1ccc2[nH]nc(Nc3nccs3)c2c1` returned a melting point of over 250 °C.

With `CN(C)c1nc(N)nc2c1ncn2C1CC(F)C(CO)O1` (stereo unspecified), the melting point was 96 to 100 °C.

In turn, `O=C1N(N2CCOCC2)c2ccccc2C1(Cc1ccccc1)c1ccccc1` (stereo unspecified) came in with a melting point of 159 to 161 °C.

`Cc1nn(-c2ccsc2)c(=O)cc1-c1ccc(OC2CCN(C3CCC3)CC2)cc1` returned a melting point of 277 to 279 °C.

Consider `CN(C)c1ccc(C(=O)NC2CCN(C(c3ccccc3)c3ccccc3)CC2)c([N+](=O)[O-])c1`, for which the melting point was 183 °C.

For the molecule `N#CC1CN1C(=O)c1ccco1` (stereo unspecified), the melting point fell in the range of 73 to 76 °C.

Take `O=c1c(-c2ccccc2)c(Cn2cnc3c(Cl)ncnc32)oc2ccc(Br)cc12`: the melting point fell in the range of 234 to 236 °C.

Consider `Nc1sc2c(c1C(=O)c1ccsc1)CCC(Cc1ccccc1)C2` (stereo unspecified), for which the melting point was 57 to 58 °C.

In the case of `CC(=O)NS(=O)(=O)c1cccc(NC(=O)NC2N=C(c3ccccc3F)c3ccccc3N(CC(=O)N3CC4CCC(CC4)C3)C2=O)c1` (racemic), the melting point was 193 to 203 °C.

`Cc1cn2c(C)nc3c(C)nn(C)c3c2n1` had a melting point of 198 to 200 °C.

For `CC(=O)SCC(=Cc1ccc(C(F)(F)F)cc1)C(=O)NCCC(=O)OCc1ccccc1`, the melting point was determined as 79 °C.

In the case of `Fc1ccc2[nH]c3c4ccccc4nc-3cc2c1`, the melting point is over 246 °C.

Turning to `Nc1cc(-n2cc(C(=O)O)c(=O)c3cc(F)c(NC4COC4)c(Cl)c32)c(F)cc1F`, the melting point was 240 to 244 °C.

The molecule `Cc1cc2ccc3c(c2o1)OC(CN1CC=C(c2c[nH]c4ccccc24)CC1)CO3` (stereo unspecified) yielded a melting point of 198 to 200 °C.

Regarding `CC1(C)OC(c2ccc(S(C)(=O)=O)c(F)c2)=C(c2ccc(N)cc2)C1=O`, the melting point is 199 to 200 °C.

`N#Cc1nn(Cc2ccccc2)c2ccccc12`: the melting point turned out to be 91 °C.

Molecule `CC(C)(C)CCNC(=O)c1ccc(C#N)cc1` registered a melting point of 154 to 157 °C.

For `COC(=O)CCc1cc2cc(Cl)ccc2n1S(=O)(=O)c1ccc(C(F)(F)F)cc1`, the melting point lay within 82 to 86 °C.

As for `CCOC(=O)N1CCC2C(O)CCCC21` (stereo unspecified), the melting point lay in the range of 153 to 155 °C.

In the case of `COc1ccc(Cl)cc1-c1c(N)c(=O)[nH]c2cc(C(F)(F)F)cc(C(F)(F)F)c12`, the melting point fell in the range of 265 to 267 °C.

The molecule `CN1CC[C@@H](c2c(O)cc(O)c3c(=O)cc(-c4cccc(F)c4Cl)oc23)[C@@H]1CO` registered a melting point of 221 to 223 °C.

Regarding `O=C1C(Cl)=Cc2c(Cl)cc3c4c(c(Cl)cc1c24)C=C(Cl)C3=O`, the melting point was 315 to 320 °C.

Regarding `COC(=O)[C@H](Cc1ccc(NC(=O)c2cc(C#N)ccc2Cl)cc1)NC(=O)OC(C)(C)C`, the melting point was 185 to 187 °C.

`O=C(O)CCC1CC(c2ccccc2)CCC1O` (stereo unspecified) returned a melting point of 154 to 155 °C.

For `CCC(C)NC(=O)c1ncc(C)cc1C(N)=O` (stereo unspecified), the melting point lay within 119 to 123 °C.

Turning to `CC(C)Oc1ccccc1C1(CC(=O)O)C(=O)Nc2ccc(Cl)cc21` (stereo unspecified), the melting point lay within 146 to 148 °C.

As to `CC1=NC(NC(=O)Nc2cccc(C)c2)C(=O)N(CC(=O)N2CCN(CCO)CC2)c2c(C)cccc21` (stereo unspecified), the melting point was 222 to 224 °C.

`CC(C)(C)C(O)C(Oc1ccc(Cl)cc1)n1ncnc1S` (stereo unspecified) returned a melting point of 193 to 194 °C.

Regarding `O=C(CCCC1CCN(Cc2ccccc2)CC1)c1ccc(N2CCCC2)cc1`, the melting point lay in the range of 115 to 116 °C.

In turn, `COc1cccc(C(=O)c2ccc(C(F)(F)F)cc2)c1` had a melting point of 69 °C.

On to `COc1ccc2c(c1)C(C(=O)N(Cc1ccc(N(C)C)cc1)c1ccc(C(C)C)cc1)CCO2` (stereo unspecified), for which the melting point fell in the range of 82 to 84 °C.

Molecule `O=C1CCC(N2Cc3cc(CNC(=O)Nc4ccc(Cl)c(Cl)c4)ccc3C2=O)C(=O)N1` (stereo unspecified) yielded a melting point of 238 to 240 °C.

`COc1cc2c(c3c1OC(C)(C)C3)C(c1ccn(CC(=O)NCC(N)=O)c(=O)c1)=NC(C)(C)C2` gave a melting point of 166 to 168 °C.

Molecule `COC(=O)CCCOc1ccc(CC(C)NCC(O)c2cc3ccccc3o2)cc1` (stereo unspecified) showed a melting point of 63 to 70 °C.
